Measurements reported in PubChem BioAssay AID977628 (Broad Institute, 2014).
Results filed as inconclusive are left out. Calls of active or inactive are those of the source.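 The calls were made as follows: active = compound lowering the normal-ribosome reporter at least twice as much as the humanized-ribosome reporter, growth loss under a set limit; inconclusive = no clear call, values can overlap the other calls; inactive = the rest.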

How the values were obtained:
[1] = tested on: E. coli mixed WT/h24 culture total growth, OD600, 24 h; experiment: E. coli growth inhibition, wild-type GFP versus h24 humanized RFP strain, dose response, h24 mutant RFP vs wild-type GFP, cherry-pick (AID 977628)
[2] = tested on: E. coli WT GFP strain growth, fluorescence, 24 h; experiment: as above

| SMILES | AC50 [1] [µM] | AC50 [2] |
| --- | --- | --- |
| Cc1ccc(NC(=O)c2ccccc2F)c(NC(=O)c2ccccc2F)c1 | > 100 |  |
| COC(=O)c1sc(C(C)(C)C)cc1CS(=O)(=O)c1ccc(Cl)cc1 | > 100 |  |
| COc1cccc(OC)c1CNC(=O)CCSCc1ccccc1F | > 100 |  |
| COc1cc2ccccc2cc1C(=O)NCC(c1cccs1)N(C)C (stereo not given) | > 100 |  |
| O=C(Nc1ccc(F)c(Cl)c1)C1CC2CCC1C2 (stereo not given) | > 100 |  |
| O=C1c2ccccc2CSc2c(O)cccc21 | > 100 |  |
| Cc1ccnc(NS(=O)(=O)c2ccc(NC(=O)c3ccc4c(c3)OCCO4)cc2)n1 | > 100 |  |
| O=C(Cc1ccc(Br)cc1)Nc1cccc(-c2cn3c(n2)SCC3)c1 | > 100 |  |
| COc1ccc(OC)c(S(=O)(=O)Nc2cccc3ccc(O)cc23)c1 | > 100 |  |
| O=C1OC[C@@H]2CCCN2C(=O)[C@@H](CC(=O)N(CCO)Cc2ccccc2)C/C=C\C[C@H]1Cc1ccc(F)cc1 | > 100 |  |
| Cc1cccc(SCC(=O)Nc2ccccc2[N+](=O)[O-])c1 | > 100 |  |
| CN1CCN(CC(=O)c2cc(C(C)(C)C)c(O)c(C(C)(C)C)c2)CC1 | > 100 |  |
| c1ccc(Cc2nc3ccccc3s2)cc1 | > 100 |  |
| CN(C)S(=O)(=O)c1ccc(Cl)c(C(=O)OCC(=O)NC(=O)c2cccn2C)c1 | > 100 |  |
| Cc1cc(C)c(OCCN(C)Cc2ccccc2)c(Br)c1 | > 100 |  |
| COC(=O)CNC(=O)COC(=O)c1ccc(Cl)nc1 | > 100 |  |
| C=CCn1c(SCC(=O)Nc2ccc3c(c2)OCCO3)nnc1-c1ccco1 | > 100 |  |
| COc1ccc(CNC(=O)c2nc(S(=O)(=O)Cc3ccccc3)ncc2Cl)cc1 | > 100 |  |
| CC(=O)c1ccc(Sc2ccccc2N)c([N+](=O)[O-])c1 | > 100 |  |
| COC(=O)c1cc(S(=O)(=O)NCc2ccc3c(c2)OCO3)cn1C | > 100 |  |
| Nc1ccc2nc(-c3ccc(Cl)cc3)[nH]c2c1 | > 100 |  |
| O=S(=O)(Nc1ccccc1N1CCCCC1)c1cccs1 | > 100 |  |

| SMILES | AC50 [1] [µM] | AC50 [2] |
| --- | --- | --- |
| CCC(C(=O)Nc1ccsc1C(=O)OC)c1ccccc1 (stereo not given) | > 100 |  |
| CCCCc1cc2c(cc1NC(=O)CN1CCCCC1)OCCO2 | > 100 |  |
| CCOCCCNC(=O)C(NC(=O)c1ccccc1O)c1ccc(C)cc1 (stereo not given) | > 100 |  |
| O=C(Nc1ccc(Cl)cn1)c1ccc([N+](=O)[O-])o1 | > 100 |  |
| CCOC(=O)c1cc(-c2ccc(OC)cc2)n[nH]1 | > 100 |  |
| CNC(=O)c1ccsc1NC(=O)c1ccc(S(=O)(=O)N2CCc3ccccc32)cc1 | > 100 |  |
| Cc1ccn2cc(-c3cccc(NC(=O)c4cccs4)c3)nc2c1 | > 100 |  |
| COc1ccc(CSc2nc3ccccc3c(=O)n2CCCN2CCOCC2)cc1F | > 100 |  |
| CN(C)CCNc1ncnc2c1sc1nc(N3CCCC3)c3c(c12)CC(C)(C)OC3 | > 100 |  |
| COc1ccc(CC(=O)Oc2ccc(C)cc2C)cc1 | > 100 |  |
| Cn1cc(CN(CCO)Cc2cccs2)c(-c2cccc(Cl)c2)n1 | > 100 |  |
| CN1OC[C@@H]2CN(C(=O)c3ccco3)[C@H](c3ccc(-c4ccc(C#N)cc4)cc3)C[C@@H]21 | > 100 |  |
| CC(NC(=O)C12CC3CC(C)(CC(C)(C3)C1)C2)c1ccncc1 (stereo not given) | > 100 |  |
| Cc1ccc(S(=O)(=O)NC(C)C(=O)NCc2ccc(Cl)cc2)cc1 (stereo not given) | > 100 |  |
| COc1ccc2c(c1)-c1nc(N)sc1CC2 | > 100 |  |
| NS(=O)(=O)c1cc(C(=O)OCC(=O)Nc2ccccc2[N+](=O)[O-])ccc1Cl | > 100 |  |
| O=C(NCc1ccc2c(c1)OCO2)c1sccc1Br | > 100 |  |
| COc1ccccc1N1CCN(Cc2ccc(OC)c3ccccc23)CC1 | > 100 |  |
| CCOC(=O)CN1C(=O)C(CC)Oc2ccc(Cl)cc21 (stereo not given) | > 100 |  |
| COc1ccc(NC(=O)Nc2cccc3c2O[C@H](CN(C)S(=O)(=O)c2ccc(Cl)cc2)[C@@H](C)CN([C@@H](C)CO)C3=O)cc1 | > 100 |  |
| O=C1OCCC1Sc1nc2ccccc2c(=O)n1Cc1ccccc1 (stereo not given) | > 100 |  |
| Cc1ccsc1C(=O)C1CCCN(Cc2cc(F)ccc2-n2cccn2)C1 (stereo not given) | > 100 |  |

| SMILES | AC50 [1] [µM] | AC50 [2] |
| --- | --- | --- |
| CCN(C(=O)COC(=O)CCc1ccccc1)c1ccccc1 | > 100 |  |
| O=C(Nc1ccccc1N1CCOCC1)C1CCCCN1S(=O)(=O)c1ccccc1 (stereo not given) | > 100 |  |
| OCCN(Cc1ccccc1)Cc1ccc(F)c(F)c1 | > 100 |  |
| O=C(CC1SC(=O)N(Cc2ccccc2Cl)C1=O)Nc1nccs1 (stereo not given) | > 100 |  |
| CCCNc1ccc(C(=O)OCC)cc1[N+](=O)[O-] | > 100 |  |
| COc1ccc(NC(=O)c2cccs2)cc1C(=O)N1CCN(c2ccccc2)CC1 | > 100 |  |
| CCN(CC)c1nc(Oc2ccc(C(=O)OC)cc2)nc(N2CCOCC2)n1 | > 100 |  |
| Cc1ccc(Cc2c(-c3cccc(Br)c3)nc3ccc(C)cn23)cc1 | > 100 |  |
| O=S(=O)(NOCc1ccc(Cl)cc1)c1ccc(Cl)cc1 | > 100 |  |
| Cc1ccc(S(=O)(=O)NCc2c(-c3ccccc3)noc2C)cc1 | > 100 |  |
| O=C(Nc1cccc(S(=O)(=O)c2cccc(NC(=O)C3CC3)c2)c1)C1CC1 | 46.7 |  |
| O=C(c1cc(S(=O)(=O)N2CCOCC2)ccc1Cl)N1CCc2ccccc2C1 | > 100 |  |
| Cc1ccc(NC(=O)C2CCN(S(=O)(=O)c3ccc4c(c3)NC(=O)CO4)CC2)cc1 | > 100 |  |
| COc1cccc(C(=O)c2c[nH]c(C(=O)NCc3cccnc3)c2)c1 | > 100 |  |
| CN(Cc1nnc(-c2ccc(F)cc2)o1)c1ccccc1 | > 100 |  |
| c1ccc(Nc2ccc3ccccc3c2)cc1 | > 100 |  |
| C[C@@H]1CN([C@@H](C)CO)C(=O)c2cc(NC(=O)C3CC3)ccc2O[C@H]1CN(C)C(=O)Nc1ccc(C(F)(F)F)cc1 | > 100 |  |
| CC1CCC2(CC1)SCC(=O)N2c1ccc(F)cc1 (stereo not given) | > 100 |  |
| COc1ccc(C(=O)C[n+]2ccc3c(c2)nc(-c2cc(OC)c(OC)cc2OC)n3C)cc1 | > 100 |  |
| CCCn1c(C(C)Nc2nc(-c3ccc(C)cc3)cs2)nc2ccccc21 (stereo not given) | > 100 |  |
| Cc1ccc(NC(=O)c2ccc([N+](=O)[O-])s2)cc1S(=O)(=O)N1CCOCC1 | > 100 |  |
| CC1CCCC(NC(=O)COC(=O)Cc2c[nH]c3ccccc23)C1C (stereo not given) | > 100 |  |

| SMILES | AC50 [1] [µM] | AC50 [2] |
| --- | --- | --- |
| O=S1(=O)N[C@H](Cc2ccccc2)COc2cc(N3CCSCC3)ccc21 | > 100 |  |
| COc1ccc(/C=C/c2nc3ccccc3n2Cc2ccccc2OC)cc1 | > 100 |  |
| Cc1ccc(C2NC(c3ccc(C)cc3)C(C)C(=O)C2C)cc1 (stereo not given) | > 100 |  |
| O=C(COC(=O)CCC(=O)c1ccc(F)cc1)Nc1cccc(S(=O)(=O)N2CCCC2)c1 | > 100 |  |
| CN(CCOc1ccccc1)S(=O)(=O)c1ccccc1C#N | > 100 |  |
| COc1cccc(NC(=O)COC(=O)Cc2ccc(Br)cc2)c1 | > 100 |  |
| Cc1cc(C(C)(C)C)oc1C(=O)N(CC(=O)NC1CCCC1)c1c(C)cccc1C | > 100 |  |
| Cc1nn2c(NCc3ccccn3)cc(C(C)C)nc2c1-c1ccccc1 | > 100 |  |
| CCN(CC)CC(=O)Nc1sc2c(c1C(=O)c1ccccc1OC)CCC2 | > 100 |  |
| Cc1ccccc1SCC(=O)OCC(=O)Nc1sccc1C(N)=O | > 100 |  |
| COc1ccc(C(=O)NCCC2=CCCCC2)cc1[N+](=O)[O-] | > 100 |  |
| CCOC(=O)c1c(C)[nH]c(C)c1S(=O)(=O)NCCN1CCN(c2ccccc2F)CC1 | > 100 |  |
| COC(=O)c1cc2c(c3c4cc(F)ccc4n(S(=O)(=O)c4cccc(C)c4)c13)C(=O)N(Cc1ccco1)C2 | > 100 |  |
| Cc1cc(C)c(OCC(=O)OCC(=O)N2CCc3ccccc3C2)c(C)c1 | > 100 |  |
| CC(C)n1nnnc1C1c2ccccc2C(=O)N1CCOc1ccccc1 (stereo not given) | > 100 |  |
| Nc1ccccc1Sc1c[nH]c2ccccc12 | > 100 |  |
| Cc1ccc(OCCCC(=O)NC(C)c2ccccc2)c(C)c1 (stereo not given) | > 100 |  |
| CCOc1ccc(C(C)=O)cc1CN1C(=O)NC2(CCCCCCC2)C1=O | > 100 |  |
| O=C(CSCc1c(Cl)cccc1Cl)NCc1ccccn1 | > 100 |  |
| COC(=O)c1ccc(OCC(=O)c2ccccc2OC)cc1 | > 100 |  |
| O=C(c1sc2ccccc2c1Cl)N1CCC2(CC1)OCCO2 | > 100 |  |
| COc1cc2c(cc1OC)CN(CC(=O)Nc1ccccc1SC)CC2 | > 100 |  |

| SMILES | AC50 [1] [µM] | AC50 [2] |
| --- | --- | --- |
| Cc1cccc(N2CCN(Cc3nc(-c4ccc(F)cc4F)oc3C)CC2)n1 | > 100 |  |
| O=C(NC1CCCCC1)C(c1cccc2ccccc12)n1c(=O)c(-c2ccco2)nc2ccccc21 (stereo not given) | > 100 |  |
| Cc1n[nH]c(C)c1S(=O)(=O)N1CCCC(C(=O)Nc2ccc(Br)cc2)C1 (stereo not given) | > 100 |  |
| COc1cc(CCN(C(=O)c2cc3ccccc3[nH]2)C(c2ccccn2)c2nc3ccccc3[nH]2)cc(OC)c1 (stereo not given) | > 100 |  |
| COc1ccccc1C1CCN(C(=O)c2cccs2)CC1 | > 100 |  |
| S=c1nc(-c2cccc(Br)c2)[nH][nH]1 | > 100 |  |
| O=C(CN1CCCCC1)n1c2ccccc2c2ccccc21 | > 100 |  |
| Cc1ccccc1-n1nnnc1SCCCC(=O)c1ccc(F)cc1 |  | > 100 µM (inactive) |
| Cc1ccc(C(=O)Nc2cccc(N(C)S(C)(=O)=O)c2)cc1S(=O)(=O)Nc1ccccc1 |  | > 100 µM (inactive) |
| O=C(CN1c2ccccc2S(=O)(=O)c2ccccc21)NCc1ccc(F)cc1 |  | > 100 µM (inactive) |
| Cc1ccc(C2NC(=O)c3[nH]nc(-c4ccccc4)c32)cc1 (stereo not given) |  | > 100 µM (inactive) |
| COc1ccc(-c2cc(C(=O)N3CCc4ccccc4C3)no2)cc1 |  | > 100 µM (inactive) |
| COc1ccc(NS(=O)(=O)c2cc(NC(=O)CNC(=O)c3cccc(OC)c3)ccc2C)cc1 |  | > 100 µM (inactive) |
| CCCCNc1ccc2c(c1)OC[C@@H](Cc1ccccc1)NS2(=O)=O |  | > 100 µM (inactive) |
| O=C(Nc1ccc2c(c1)OCCO2)c1cccnc1Oc1ccc(Cl)cc1 |  | > 100 µM (inactive) |
| COc1ccc(Cn2c(=O)c3[nH]cnc3n(-c3ccc(C)cc3)c2=O)cc1 |  | > 100 µM (inactive) |
| COc1cccc(C(NC(C)=O)c2nc(-c3ccccc3OC)cs2)c1 (stereo not given) |  | > 100 µM (inactive) |
| Cc1ccc2nc(SCC(=O)c3ccc(O)cc3O)[nH]c2c1 |  | > 100 µM (inactive) |
| C[C@@H]1CCCCO[C@@H](CN(C)C(=O)c2ccccc2)[C@H](C)CN([C@@H](C)CO)C(=O)c2cc(NC(=O)c3ccccc3)ccc2O1 |  | > 100 µM (inactive) |
| O=C1NC(CCc2ccccc2)C(=O)N1Cc1cccc2ccccc12 (stereo not given) |  | > 100 µM (inactive) |
| N#Cc1ccc(C(=O)Nc2ccn(-c3ccccc3)n2)cc1 |  | > 100 µM (inactive) |
| COC(=O)c1cc(C(=O)c2c(C)cc3ccccn23)cc([N+](=O)[O-])c1 |  | > 100 µM (inactive) |
